Data on 13 compounds can be found in patent US20030004172A1, “Fused pyrimidinone matrix metalloproteinase inhibitors” (priority 2001, published 2003).

For this test, the target named is MMP-13CD (catalytic domain of collagenase-3) (Homo sapiens, UniProt P45452). Briefly: Thiopeptolide substrate hydrolysis inhibition assay, MMP-13CD. It is filed as biochemical. The conditions noted are these: Table I; thiopeptolide substrate, HEPES pH 7.0, 22° C.; read-out: MMP-13CD IC50. The text has this:
Thiopeptolide substrates show virtually no decomposition or hydrolysis at or below neutral pH in the absence of a matrix metalloproteinase enzyme.
The IC50 is the midpoint of a concentration-inhibition curve. For `Cn1c(=O)n(Cc2ccccc2)c(=O)c2cc(C(=O)OC3CCCc4ccccc43)sc21` (stereo not shown) [Example 198, 3-Benzyl-1-methyl-2,4-dioxo-1,2,3,4-tetrahydro-thieno[2,3-d]pyrimidine-6-carboxylic acid 1,2,3,4-tetrahydro-naphthalen-1-yl ester], the IC50 is greater than 100 µM.
Then `COc1ccc(OC)c(C(=O)Cn2c(=O)c3cc(C(=O)OCc4ccccc4)sc3n(C)c2=O)c1` [Example 108, 3-[2-(2,5-Dimethoxy-phenyl)-2-oxo-ethyl]-1-methyl-2,4-dioxo-1,2,3,4-tetrahydro-thieno[2,3-d]pyrimidine-6-carboxylic acid benzyl ester], with 1.7 µM; and `COc1ccc(CNC(=O)c2cc3c(=O)n(CCCCCC#N)c(=O)n(C)c3s2)cc1` [Example 257], with 1.5 µM; and `Cn1c(=O)n(Cc2ccc(C(F)(F)F)cc2C(F)(F)F)c(=O)c2cc(C(=O)OCc3ccccc3)sc21` [Example 111, 3-(2,4-Bis-trifluoromethyl-benzyl)-1-methyl-2,4-dioxo-1.2.3.4-tetrahydro-thieno[2,3-d]pyrimidine-6-carboxylic acid benzyl ester], with 3.2 µM.
Then `COc1cc(CNC(=O)c2cc3c(=O)n(Cc4ccccc4)c(=O)n(C)c3s2)cc(OC)c1OC` [Example 331, 3-Benzyl-1-methyl-2,4-dioxo-1,2,3,4-tetrahydro-thieno[2,3-d]pyrimidine-6-carboxylic acid 3,4,5-trimethoxy-benzylamide], with greater than 100 µM; and `COc1ccc(CNC(=O)c2cc3c(=O)n(CC[C@@H](C)CCC=C(C)C)c(=O)n(C)c3s2)cc1` [Example 255], with 14 µM; and `Cn1c(=O)n(Cc2ccccc2C#N)c(=O)c2cc(C(=O)OCc3ccccc3)sc21` [Example 122, 3-(2-Cyano-benzyl)-1-methyl-2,4-dioxo-1,2,3,4-tetrahydro-thieno[2,3-d]pyrimidine-6-carboxylic acid benzyl ester], with 4.5 µM.
As for `Cn1c(=O)n(Cc2ccc(C(=O)O)cc2)c(=O)c2cc(C(=O)NCc3ccc(Br)cc3)sc21` [Example 55, 4-[6-(4-Bromo-benzylcarbamoyl)-1-methyl-2,4-dioxo-1,4-dihydro-2H-thieno[2,3-d]pyrimidin-3-ylmethyl]-benzoic acid], the figure is 0.011 µM.
As to `Cc1ccccc1CNC(=O)c1cc2c(=O)n(Cc3ccccc3)c(=O)n(C)c2s1` [Example 337, 3-Benzyl-1-methyl-2,4-dioxo-1,2,3,4-tetrahydro-thieno[2,3-d]pyrimidine-6-carboxylic acid 2-methyl-benzylamide], the concentration for half-maximal inhibition (IC50) was greater than 100 µM.
As for `Cn1c(=O)n(Cc2ccccc2)c(=O)c2cc(C(=O)NCc3ccco3)sc21` [Example 354, 3-Benzyl-1-methyl-2,4-dioxo-1,2,3,4-tetrahydro-thieno[2,3-d]pyrimidine-6-carboxylic acid (furan-2-ylmethyl)-amide], the figure is 30 µM; as for `Cn1c(=O)n(CCOc2ccccc2)c(=O)c2cc(C(=O)OCc3ccccc3)sc21` [Example 132, 1-Methyl-2,4-dioxo-3-(2-phenoxy-ethyl)-1,2,3,4-tetrahydro-thieno[2,3-d]pyrimidine-6-carboxylic acid benzyl ester], 0.074 µM; as for `Cn1c(=O)n(Cc2ccccc2)c(=O)c2cc(C(=O)OCCC#N)sc21` [Example 209, 3-Benzyl-1-methyl-2,4-dioxo-1,2,3,4-tetrahydro-thieno[2,3-d]pyrimidine-6-carboxylic acid 2-cyano-ethyl ester], greater than 100 µM.
As for `Cn1c(=O)n(Cc2ccccc2)c(=O)c2cc(C(=O)OC(C#N)c3ccccc3)sc21` (stereo not shown) [Example 211, 3-Benzyl-1-methyl-2,4-dioxo-1,2,3,4-tetrahydro-thieno[2,3-d]pyrimidine-6-carboxylic acid cyano-phenyl-methyl ester], the figure is 2.1 µM.
